How the values were obtained:
LasR [1] = target: T1, LasR (Pseudomonas aeruginosa, UniProt P25084); experiment: microscale thermophoresis; type: binding
T1 construct: LasR-LBD

LasR [2] = target: T1, LasR; experiment: microscale thermophoresis (no fluorescence signal in thermal shift assay); type: binding

T1 sequence (P25084 1-173): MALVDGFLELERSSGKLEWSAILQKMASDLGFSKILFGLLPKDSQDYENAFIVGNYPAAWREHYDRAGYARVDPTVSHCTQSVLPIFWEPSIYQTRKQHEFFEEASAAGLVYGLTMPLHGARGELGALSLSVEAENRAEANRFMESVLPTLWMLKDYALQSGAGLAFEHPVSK

## O=C1C=C(Br)/C(=C/Br)O1 [C30, (Z-)-4-Bromo-5-(bromomethylene)-2(5H)-furanone]
LasR [1]
  Kd: 20.4 ± 16 µM

## O=C(/C=C/c1ccc(O)c(O)c1)c1ccc(O)cc1O [B, Butein]
LasR [2]
  Kd: 3.48 ± 1.63 µM

From PMC7140002, “Attenuation of Pseudomonas aeruginosa Quorum Sensing by Natural Products: Virtual Screening, Evaluation and Biomolecular Interactions” (International Journal of Molecular Sciences, 2020)
